SMILES strings stand for the structures.

Data set [1] relates to HSV-1 B2006 strain (thymidine kinase-deficient, TK−). Briefly: microbe, parasite or virus in culture. In kind it is cell-based, herpes simplex virus type 1 (HSV-1). The following applies: Human alphaherpesvirus 1, 48 h, read-out: EC50 B2006. The procedure: (§1) The synthetic compounds and acyclovir (ACV, Sigma) were dissolved in dimethylsulfoxide (DMSO) and diluted with Eagle’s minimal essential medium supplemented with 1.5% inactivated fetal bovine serum (FBS) and 50 μg/mL gentamicin (MEM 1.5%).
(§2) Vero and Hep-2 cells were grown in MEM supplemented with 10% inactivated FBS and 50 µg/mL gentamicin and maintained in MEM 1.5%. Raw 264.7 cells were grown in Dulbecco’s Modified Eagle’s Medium (DMEM) supplemented with 10% FBS and 50 µg/mL gentamicin and maintained in DMEM 1.5%. C6 cells were grown in DMEM-F12 supplemented with 2.5% FBS50 µg/mL gentamicin and 15% horse serum (HS) and maintained in DMEM-F12 supplemented with 1.5% FBS. HSV-1 KOS, thymidine kinase-deficient (TK−) B2006 and Field strains of HSV-1 were used and propagated at low multiplicity of infection (m.o.i.) on Vero cells.
(§3) Cells grown in 96-well plates were infected or not with HSV-1 (KOS, Field and B2006 strains) at a m.o.i. of 0.1 PFU/cell. After 1-h adsorption at 37 °C, the inoculum was removed and medium containing or not the compounds was added, in triplicate. […] Then, cells were fixed with 10% formaldehyde for 15 min at room temperature, washed once with distilled water and stained with 0.05% crystal violet in 10% ethanol over 30 min. […] The absorbance of each well was measured on an Eurogenetics MPR-A 4i microplate reader using a test wave-length of 590 nm.

The subject of another data set is HSV-1 Field strain. Briefly: Cytopathic effect assay, HSV-1 Field. Particulars: Human alphaherpesvirus 1; inhibition of 50% viral cytopathic effect; m.o.i. 0.1 PFU/cell, 48 h p.i.; nonlinear regression. In kind it is cell-based, herpes simplex virus type 1 (HSV-1). The procedure:
as §1, §2, §3

The test system of the next data set is HSV-1 KOS strain. The data set is described as follows: Cytopathic effect assay, HSV-1 KOS. In kind it is cell-based, herpes simplex virus type 1 (HSV-1). The following applies: Human alphaherpesvirus 1; inhibition of 50% viral cytopathic effect; m.o.i. 0.1 PFU/cell, 48 h p.i.; nonlinear regression. The procedure:
as §1, §2, §3
For orientation: Protection from cytopathic effect is a common read-out in antiviral testing.

Another data set is described as follows: in vitro. In kind it is cell-based. The following applies: African green monkey. The procedure:
as §1, §2
Cell viability was determined using the tetrazolium salt MTT (3-(4,5-dimethylthiazol-2-yl)-2,5-diphenyltetrazolium bromide, Sigma) according to the manufacturer’s instructions. […] The absorbance was measured on a MPR-A 4i microplate reader (Eurogenetics, Tipperary, Ireland) using a test wavelength of 570 nm and a reference wavelength of 630 nm. Results were expressed as a percentage of absorbance of treated cell cultures with respect to untreated ones. […]

`Nc1nc2c(ncn2COCCO)c(=O)[nH]1` [ACV, Acyclovir]: the EC50 in data set [1] is 50 ± 2 µM; in the data set with HSV-1 Field strain, 73 ± 1 µM; with HSV-1 KOS strain, 8.2 ± 1 µM. Also, the 50% cytotoxic concentration (CC50) at 48 h in the data set “in vitro” was > 1000 µM.

For orientation: EC50 means the midpoint of the concentration-response curve. By CC50 is commonly meant the concentration at which the toxic effect on the cells reaches its halfway point.

For the origin of these results see paper PMC6099630, “Synthesis, Antiviral and Cytotoxic Activity of Novel Terpenyl Hybrid Molecules Prepared by Click Chemistry” (Molecules : A Journal of Synthetic Chemistry and Natural …, 2018).
